Test results: BigSolDB 2.1

Clc1ccc2c(c1)Nc1ccccc1S2
solubility (mole fraction)
Details	in 2-butanone	in acetone	in acetonitrile	in ethanol	in ethyl acetate	in isopropanol	in methanol	in n-butanol	in n-propanol
283.15 K	0.0337	0.0268	0.00354	0.00431	0.0156	0.0038	0.00465	0.00328	0.0041
285.65 K	0.0356	0.0281	0.00378	0.00446	0.0173	0.00397	0.00483	0.00344	0.00426
288.15 K	0.0378	0.03	0.00406	0.00465	0.0194	0.00415	0.00502	0.00361	0.00446
290.65 K	0.0402	0.0317	0.00435	0.00486	0.0216	0.00433	0.00525	0.00381	0.00466
293.15 K	0.0427	0.0336	0.00467	0.00505	0.024	0.00454	0.00545	0.00401	0.00487
295.65 K	0.0455	0.0356	0.00498	0.00525	0.0265	0.00473	0.0057	0.00422	0.00509
298.15 K	0.0484	0.0378	0.00532	0.00546	0.0291	0.00493	0.00594	0.00445	0.0053
300.65 K	0.0513	0.0399	0.00564	0.00569	0.0323	0.00513	0.0062	0.00468	0.00552
303.15 K	0.0546	0.0421	0.006	0.00592	0.0357	0.00536	0.00647	0.00492	0.00575
305.65 K	0.0578	0.0443	0.00633	0.00617	0.0397	0.00556	0.00673	0.00518	0.006
308.15 K	0.0612	0.0469	0.00672	0.00641	0.0435	0.0058	0.00701	0.00543	0.00622
310.65 K	0.0646	0.0493	0.0071	0.00667	0.0484	0.00605	0.00728	0.0057	0.00649
313.15 K	0.0683	0.0518	0.00756	0.00695	0.0528	0.0063	0.00758	0.00596	0.00678
315.65 K	0.0727	0.0544	0.00795	0.00723	0.0575	0.00657	0.00786	0.00624	0.00705
318.15 K	0.0771	0.0575	0.00837	0.00756	0.0625	0.00687	0.00819	0.00653	0.00737
